In ChEMBL document CHEMBL1201862, “PubChem BioAssay data set” (2004):
Activity calls are given as the source filed them.

What was measured:
[1] = molecular target: T1, Leucine aminopeptidase (Plasmodium falciparum 3D7, UniProt Q8IL11); test: P. falciparum M17LAP inhibitors, primary screen, biochemical, fluorogenic H-Leu-NHMec substrate, 1536-well (AID 1619); format: functional
T1 sequence (Q8IL11 whole entry): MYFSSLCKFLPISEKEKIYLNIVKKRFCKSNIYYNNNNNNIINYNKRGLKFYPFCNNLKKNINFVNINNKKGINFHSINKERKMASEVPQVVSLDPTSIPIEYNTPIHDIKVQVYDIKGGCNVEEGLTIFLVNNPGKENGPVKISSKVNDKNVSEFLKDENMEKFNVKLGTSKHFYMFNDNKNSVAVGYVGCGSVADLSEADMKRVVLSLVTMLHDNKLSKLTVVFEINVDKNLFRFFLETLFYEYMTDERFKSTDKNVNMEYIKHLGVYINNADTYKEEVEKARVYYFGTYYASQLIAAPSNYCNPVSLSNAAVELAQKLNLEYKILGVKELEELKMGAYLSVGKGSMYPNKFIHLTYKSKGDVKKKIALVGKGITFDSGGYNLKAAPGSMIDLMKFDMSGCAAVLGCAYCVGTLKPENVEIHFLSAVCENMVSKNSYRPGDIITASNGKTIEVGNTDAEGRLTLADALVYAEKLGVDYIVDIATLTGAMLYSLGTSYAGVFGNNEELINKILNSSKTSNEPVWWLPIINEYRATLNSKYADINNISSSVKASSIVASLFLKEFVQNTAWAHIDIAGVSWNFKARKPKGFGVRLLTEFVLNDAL

[2] = molecular target: T2, Polyadenylate-binding protein 1 (Homo sapiens, UniProt P11940); test: MLLE binding blockers, Cy5 peptide tracer – biochemical, fluorescence polarization, Cy5-PAM2 peptide, secondary, miRNA deadenylation inhibitor project, dose response (AID 602260); format: functional; conditions: read-out: IC50_Mean
[3] = molecular target: T2, Polyadenylate-binding protein 1; test: MLLE domain peptide-binding blockers, IC50 – biochemical, fluorescence polarization, FITC-PAM2 peptide, dose response (AID 602259); format: functional; conditions: read-out: IC50_Mean
[4] = molecular target: Glyceraldehyde-3-phosphate dehydrogenase (Homo sapiens, UniProt P04406)
[5] = molecular target: Large T antigen (Simian virus 40, UniProt P03070); format: functional, Betapolyomavirus macacae;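 note: Confirmatory-stage PubChem screen for compounds that inhibit SV40 T antigen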
[6] = molecular target: Induced myeloid leukemia cell differentiation protein Mcl-1 (Homo sapiens, UniProt Q07820); format: functional
[7] = molecular target: T3, RNA-binding protein pos-1 (Caenorhabditis elegans, UniProt G5EF15); test: disruptors of C. elegans POS-1 RNA interaction – biochemical, fluorescence polarization, dose response (AID 1964);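 note: purified POS-1 fused to maltose binding protein made in E. coli; potency of compounds blocking POS-1 binding to fluorescent RNA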
T3 sequence (G5EF15 whole entry): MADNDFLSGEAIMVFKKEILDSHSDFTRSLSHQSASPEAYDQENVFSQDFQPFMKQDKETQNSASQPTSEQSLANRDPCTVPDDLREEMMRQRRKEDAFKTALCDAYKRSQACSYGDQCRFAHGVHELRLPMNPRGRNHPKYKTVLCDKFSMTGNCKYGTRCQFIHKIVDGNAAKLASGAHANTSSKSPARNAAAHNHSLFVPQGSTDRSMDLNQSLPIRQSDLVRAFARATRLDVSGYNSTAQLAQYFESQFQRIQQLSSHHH

[8] = molecular target: T4, Zinc finger protein mex-5 (Caenorhabditis elegans, UniProt Q9XUB2); test: potency of MEX-5 RNA-binding blockers – biochemical, C. elegans, fluorescence polarization, dose response (AID 1960)
T4 sequence (Q9XUB2 whole entry): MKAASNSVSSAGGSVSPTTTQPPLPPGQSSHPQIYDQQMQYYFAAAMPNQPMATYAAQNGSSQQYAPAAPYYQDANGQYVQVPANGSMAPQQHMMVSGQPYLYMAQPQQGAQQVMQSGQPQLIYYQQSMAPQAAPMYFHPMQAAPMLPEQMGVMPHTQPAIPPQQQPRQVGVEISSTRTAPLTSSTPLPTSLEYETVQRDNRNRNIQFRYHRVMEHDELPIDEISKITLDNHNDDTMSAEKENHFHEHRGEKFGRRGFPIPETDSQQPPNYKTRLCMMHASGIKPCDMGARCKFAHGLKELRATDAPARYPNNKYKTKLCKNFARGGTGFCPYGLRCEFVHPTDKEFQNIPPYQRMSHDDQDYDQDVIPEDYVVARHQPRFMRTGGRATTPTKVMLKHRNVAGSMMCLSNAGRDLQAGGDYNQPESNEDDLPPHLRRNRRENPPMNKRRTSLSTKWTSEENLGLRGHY

[9] = molecular target: Cytochrome P450 2C19 (Homo sapiens, UniProt P33261); test: Cytochrome panel assay with activity outcomes. Panel member name: p450-cyp2c19 Compounds with AC50 equal or less than 10 uM are considered active; format: functional; conditions: read-out: AC50
[10] = molecular target: T5, Replicative DNA helicase DnaB (Mycobacterium tuberculosis, UniProt P9WMR3); test: DnaB intein splicing inhibitors, dose response, biochemical, cell-free fluorescence (AID 449749); format: functional
T5 sequence (P9WMR3 whole entry): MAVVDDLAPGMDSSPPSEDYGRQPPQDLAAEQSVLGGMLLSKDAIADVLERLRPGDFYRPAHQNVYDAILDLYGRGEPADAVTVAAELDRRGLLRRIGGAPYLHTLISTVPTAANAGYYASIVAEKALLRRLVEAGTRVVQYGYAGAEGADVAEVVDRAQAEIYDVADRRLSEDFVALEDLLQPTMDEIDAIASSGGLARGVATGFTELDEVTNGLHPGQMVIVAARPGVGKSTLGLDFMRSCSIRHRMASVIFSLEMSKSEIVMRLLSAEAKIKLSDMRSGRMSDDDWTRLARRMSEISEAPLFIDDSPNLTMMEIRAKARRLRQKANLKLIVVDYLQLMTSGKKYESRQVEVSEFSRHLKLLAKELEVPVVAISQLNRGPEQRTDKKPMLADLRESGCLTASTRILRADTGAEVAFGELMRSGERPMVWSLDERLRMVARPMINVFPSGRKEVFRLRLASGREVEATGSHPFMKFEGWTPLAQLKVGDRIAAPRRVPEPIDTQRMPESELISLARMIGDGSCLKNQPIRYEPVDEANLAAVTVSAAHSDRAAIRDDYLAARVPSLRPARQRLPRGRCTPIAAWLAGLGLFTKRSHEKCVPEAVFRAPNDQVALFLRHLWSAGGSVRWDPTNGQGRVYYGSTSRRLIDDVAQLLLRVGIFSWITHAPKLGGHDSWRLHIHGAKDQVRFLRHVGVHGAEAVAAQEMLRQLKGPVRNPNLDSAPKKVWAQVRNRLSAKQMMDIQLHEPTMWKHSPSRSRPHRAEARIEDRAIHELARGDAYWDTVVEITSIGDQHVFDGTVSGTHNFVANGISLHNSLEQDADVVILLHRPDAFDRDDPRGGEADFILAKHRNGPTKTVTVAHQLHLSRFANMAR

[11] = molecular target: T6, Protein RecA (Mycobacterium tuberculosis, UniProt P9WHJ3); test: Fluorescence Cell-Free Homogeneous Dose Retest to Identify Inhibitors of RecA-Intein Splicing Activity. [Related pubchem assays (depositor defined):AID2097, AID2223, AID489010, AID492950]; format: functional
T6 sequence (P9WHJ3 whole entry): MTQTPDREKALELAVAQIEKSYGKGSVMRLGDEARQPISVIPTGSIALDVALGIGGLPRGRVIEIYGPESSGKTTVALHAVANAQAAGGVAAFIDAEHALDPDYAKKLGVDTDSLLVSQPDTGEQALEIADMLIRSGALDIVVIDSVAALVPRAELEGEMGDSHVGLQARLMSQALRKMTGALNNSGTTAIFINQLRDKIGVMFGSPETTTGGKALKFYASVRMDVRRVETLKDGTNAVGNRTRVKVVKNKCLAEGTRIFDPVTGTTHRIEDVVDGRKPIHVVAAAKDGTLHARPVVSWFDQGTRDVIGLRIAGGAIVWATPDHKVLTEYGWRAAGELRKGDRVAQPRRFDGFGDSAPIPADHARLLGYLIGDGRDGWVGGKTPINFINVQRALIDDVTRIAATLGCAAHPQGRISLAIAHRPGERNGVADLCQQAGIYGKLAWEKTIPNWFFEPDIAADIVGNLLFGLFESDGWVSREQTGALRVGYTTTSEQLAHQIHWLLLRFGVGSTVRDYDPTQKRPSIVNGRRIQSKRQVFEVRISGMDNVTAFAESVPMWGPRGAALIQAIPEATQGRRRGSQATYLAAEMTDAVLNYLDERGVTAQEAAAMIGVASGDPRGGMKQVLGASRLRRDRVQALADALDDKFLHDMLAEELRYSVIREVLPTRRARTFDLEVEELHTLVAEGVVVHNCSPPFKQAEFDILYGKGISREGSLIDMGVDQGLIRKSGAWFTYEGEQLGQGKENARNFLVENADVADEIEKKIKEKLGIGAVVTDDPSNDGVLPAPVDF

[12] = Luminescence Cell-Based Dose Confirmation HTS to Identify Activators of 5'UTR Stem-Loop Driven Alpha-Synuclein mRNA Translation in H4 Neuroglioblastoma Cells. [Related pubchem assays: 1829 (Project Summary), 1814 (Primary HTS)]; format: functional
[13] = Luminescence Cell-Based Dose Response HTS to Identify Activators of Luciferase Translation or Activity in H4 […] Cells. [Related pubchem assays: 1829 (Project Summary), 1814 (Primary HTS)]; format: functional
[14] = tested on: H4; test: Luminescence Cell-Based Dose Response HTS to Identify Activators of 5'UTR Stem-Loop Driven Prion Protein mRNA Translation in H4 Neuroglioblastoma Cells. [Related pubchem assays: 1829 (Project Summary), 1814 (Primary HTS)]; format: functional; conditions: Homo sapiens

Chain of Glyceraldehyde-3-phosphate dehydrogenase (P04406 whole entry): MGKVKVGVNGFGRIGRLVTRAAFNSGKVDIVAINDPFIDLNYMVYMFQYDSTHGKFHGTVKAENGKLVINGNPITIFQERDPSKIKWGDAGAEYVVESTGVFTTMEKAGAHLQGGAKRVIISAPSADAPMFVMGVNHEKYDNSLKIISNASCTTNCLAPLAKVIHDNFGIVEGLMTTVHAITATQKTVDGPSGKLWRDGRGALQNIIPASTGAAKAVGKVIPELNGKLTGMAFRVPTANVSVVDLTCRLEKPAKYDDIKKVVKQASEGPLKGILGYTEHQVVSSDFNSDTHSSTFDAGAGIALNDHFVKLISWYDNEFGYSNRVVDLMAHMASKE
Chain of Large T antigen (P03070 whole entry): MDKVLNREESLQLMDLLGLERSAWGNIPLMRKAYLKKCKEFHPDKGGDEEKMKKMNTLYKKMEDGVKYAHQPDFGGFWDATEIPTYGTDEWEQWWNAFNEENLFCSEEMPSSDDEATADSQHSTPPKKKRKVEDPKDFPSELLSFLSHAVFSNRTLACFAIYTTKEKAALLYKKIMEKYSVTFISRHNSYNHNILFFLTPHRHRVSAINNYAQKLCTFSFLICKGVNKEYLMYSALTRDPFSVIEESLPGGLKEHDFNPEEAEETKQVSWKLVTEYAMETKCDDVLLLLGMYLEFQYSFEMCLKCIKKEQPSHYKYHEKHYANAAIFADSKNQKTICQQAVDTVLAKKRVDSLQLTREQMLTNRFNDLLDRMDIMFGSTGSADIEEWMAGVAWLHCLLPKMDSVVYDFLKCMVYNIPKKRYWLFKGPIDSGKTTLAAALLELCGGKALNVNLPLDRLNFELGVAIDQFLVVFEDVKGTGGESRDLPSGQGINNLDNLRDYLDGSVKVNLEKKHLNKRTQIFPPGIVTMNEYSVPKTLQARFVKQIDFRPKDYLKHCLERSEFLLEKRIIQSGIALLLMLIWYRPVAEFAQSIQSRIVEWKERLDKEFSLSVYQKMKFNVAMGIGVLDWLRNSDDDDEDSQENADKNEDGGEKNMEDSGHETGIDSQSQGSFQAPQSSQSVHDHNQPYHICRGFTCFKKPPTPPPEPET
T2 sequence (P11940 whole entry, the tested form may be a part): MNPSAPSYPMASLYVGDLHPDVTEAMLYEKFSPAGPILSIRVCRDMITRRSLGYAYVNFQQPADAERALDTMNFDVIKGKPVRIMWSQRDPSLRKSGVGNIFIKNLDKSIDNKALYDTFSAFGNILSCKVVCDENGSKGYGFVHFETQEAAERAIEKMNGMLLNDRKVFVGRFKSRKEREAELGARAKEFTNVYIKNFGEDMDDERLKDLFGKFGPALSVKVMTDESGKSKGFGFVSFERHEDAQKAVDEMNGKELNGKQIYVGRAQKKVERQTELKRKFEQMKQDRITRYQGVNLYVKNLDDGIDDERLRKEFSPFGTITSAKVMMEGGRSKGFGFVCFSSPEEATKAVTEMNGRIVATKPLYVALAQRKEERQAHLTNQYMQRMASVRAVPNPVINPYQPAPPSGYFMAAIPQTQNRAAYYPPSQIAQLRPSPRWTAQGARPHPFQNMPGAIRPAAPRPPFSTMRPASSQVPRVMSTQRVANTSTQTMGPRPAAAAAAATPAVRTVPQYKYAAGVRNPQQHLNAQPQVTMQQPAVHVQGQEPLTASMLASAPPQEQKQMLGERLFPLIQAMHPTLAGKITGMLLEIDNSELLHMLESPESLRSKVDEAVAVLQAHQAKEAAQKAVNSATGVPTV
Chain of Induced myeloid leukemia cell differentiation protein Mcl-1 (Q07820 whole entry, the tested form may be a part): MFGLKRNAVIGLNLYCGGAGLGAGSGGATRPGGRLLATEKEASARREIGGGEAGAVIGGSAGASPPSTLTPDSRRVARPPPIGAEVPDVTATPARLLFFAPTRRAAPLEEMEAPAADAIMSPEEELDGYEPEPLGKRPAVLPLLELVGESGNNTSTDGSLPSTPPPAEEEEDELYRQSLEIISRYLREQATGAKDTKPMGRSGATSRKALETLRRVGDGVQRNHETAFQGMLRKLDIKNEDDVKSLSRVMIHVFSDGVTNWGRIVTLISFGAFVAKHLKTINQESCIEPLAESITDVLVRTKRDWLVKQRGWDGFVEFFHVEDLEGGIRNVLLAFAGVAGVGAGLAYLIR
Chain of Cytochrome P450 2C19 (P33261 whole entry): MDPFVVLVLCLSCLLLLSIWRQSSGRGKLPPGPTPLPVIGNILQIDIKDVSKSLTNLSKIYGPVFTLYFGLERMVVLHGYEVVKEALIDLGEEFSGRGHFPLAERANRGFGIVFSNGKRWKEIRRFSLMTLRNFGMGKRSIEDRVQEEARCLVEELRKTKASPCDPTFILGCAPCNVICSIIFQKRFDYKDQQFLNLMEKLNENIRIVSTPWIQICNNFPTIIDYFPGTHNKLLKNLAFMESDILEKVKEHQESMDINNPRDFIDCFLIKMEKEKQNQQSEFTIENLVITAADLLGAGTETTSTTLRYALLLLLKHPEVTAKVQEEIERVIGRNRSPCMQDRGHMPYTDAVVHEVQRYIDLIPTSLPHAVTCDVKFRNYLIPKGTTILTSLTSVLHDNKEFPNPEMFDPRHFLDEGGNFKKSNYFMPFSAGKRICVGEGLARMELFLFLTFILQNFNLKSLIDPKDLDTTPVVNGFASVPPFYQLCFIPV

## Cc1ccc(Nc2cnn(C34CC5CC(CC(CC(=O)O)(C5)C3)C4)c(=O)c2Cl)c(Cl)c1
[1]
  IC50: 24.4 µM (active)

## CCc1c(O)nc(SCC(=O)Nc2ccccc2)n(C(C)CC)c1=O (centres undefined)
[1]
  IC50: 17.8 µM (active)
[2]
  IC50: > 66 µM (inactive)
[3]
  IC50: > 66 µM (inactive)

## Cc1ccc(C)c(NC(=O)CSc2ncnc3nc[nH]c23)c1
[1]
  IC50: 50.8 µM (active)

## O=C(O)/C=C/C(=O)Nc1ccc2c(c1)C(=O)c1ccccc1C2=O
[4]
  IC50: > 100 µM (not active)

## Cc1ccc(C(=O)C2CCN(CC(=O)Nc3ccc(N(C)C)cc3)CC2)cc1
[5]
  IC50: 14.5 µM (active)

## COc1cccc(C(=O)Nc2ccc3c(c2)n(C)c(=O)n3C)c1
[5]
  IC50: > 100 µM (active)

## COc1cc(NS(=O)(=O)c2ccc(NC(=O)CSC3=NCCS3)cc2)nc(OC)n1
[1]
  IC50: 2.12 µM (active)

## COc1ccc(N2CCN(C3=C(Cl)C(=O)N(c4ccc(C(F)(F)F)cc4)C3=O)CC2)cc1
[4]
  IC50: > 12.5 µM (inconclusive)

## Cc1nc(N)sc1-c1csc(Nc2ncccn2)n1
[6]
  IC50: 3.69 µM (active)

## COc1ccc(C2C(C#N)=C(N)OC3=C2C(=O)CC(C)(C)C3)c([N+](=O)[O-])c1OC (centres undefined)
[7]
  EC50: > 300 µM (not active)
[8]
  EC50: > 300 µM (not active)
[9]
  AC50: 14.1 µM (inconclusive)
[2]
  IC50: > 66 µM (inactive)
[3]
  IC50: > 66 µM (inactive)

## O=C(NCc1ccco1)C(=O)c1cn(CC(=O)N2CCCC2)c2ccccc12
[1]
  IC50: 73.3 µM (active)

## CCCc1n[nH]c2c1C(CCc1ccccc1)C(C#N)=C(N)O2 (centres undefined)
[1]
  IC50: 55.7 µM (active)
[10]
  AC50: 6.33 µM (active)
[11]
  EC50: 7.93 µM (active)

## O=C1c2c(O)cc(O)cc2O[C@H](c2ccc(O)c(O)c2)[C@H]1O [(+)-TAXIFOLIN]
[5]
  IC50: 32 µM (active)

## Cc1ccc(NC(=O)Cn2nc(C)c3ccccc3c2=O)cc1F
[1]
  IC50: 14 µM (active)

## NC(=O)N/N=C/c1c(Sc2nnnn2-c2ccccc2)nc2ccccn2c1=O
[5]
  IC50: 60.5 µM (active)

## CC(C)Sc1nc(-c2ccccc2)cc(=O)[nH]1
[1]
  IC50: 28.3 µM (active)

## O=C(O)CN1C(=O)S/C(=C\c2ccc(O)cc2)C1=O
[4]
  IC50: > 100 µM (not active)

## O=C(O)c1cccc(Cn2c(Cl)c(/C=N/NC(=O)c3ccccc3)sc2=O)c1
[1]
  IC50: 20.8 µM (active)

## Cc1cccn2c(=O)c3cc(C(=O)NCc4ccco4)c(=N)n(CCOCCO)c3nc12
[2]
  IC50: > 66 µM (inactive)
[3]
  IC50: 15.2 µM (active)

## N#CC1=C2SCN(Cc3ccco3)CN2C(=O)CC1c1ccc(Cl)cc1 (centres undefined)
[5]
  IC50: > 100 µM (active)

## NC(=NOC(=O)CSc1ccccc1)c1ccc([N+](=O)[O-])cc1
[12]
  EC50: 11.5 µM (active)
[13]
  EC50: 9.44 µM (active)
[14]
  EC50: > 120 µM (not active)
[2]
  IC50: > 66 µM (inactive)
[3]
  IC50: > 66 µM (inactive)

## O=C(CSC1=NCCS1)Nc1nc2ccccc2s1
[12]
  EC50: 15 µM (active)
[13]
  EC50: 12.5 µM (active)
[14]
  EC50: 9.16 µM (active)
[2]
  IC50: > 66 µM (inactive)
[3]
  IC50: > 66 µM (inactive)

## Cn1c(CCC(=O)O)nc2cc(S(=O)(=O)N3CCCCC3)ccc21
[2]
  IC50: > 66 µM (inactive)
[3]
  IC50: > 66 µM (inactive)

## O=C(O)C1CSC(c2ccncc2)N1 (centres undefined)
[2]
  IC50: > 66 µM (inactive)
[3]
  IC50: > 66 µM (inactive)

## COc1ccc(N2CCN(C3=C(Cl)C(=O)N(c4ccnc(Cl)c4)C3=O)CC2)cc1
[4]
  IC50: > 50 µM (inconclusive)
